Experiments:
[1] = biological target: 5-hydroxytryptamine receptor 1D (Homo sapiens, UniProt P28221)
[2] = biological target: T1, Muscarinic acetylcholine receptor M2 (Homo sapiens, UniProt P08172)
T1 sequence (P08172 whole entry): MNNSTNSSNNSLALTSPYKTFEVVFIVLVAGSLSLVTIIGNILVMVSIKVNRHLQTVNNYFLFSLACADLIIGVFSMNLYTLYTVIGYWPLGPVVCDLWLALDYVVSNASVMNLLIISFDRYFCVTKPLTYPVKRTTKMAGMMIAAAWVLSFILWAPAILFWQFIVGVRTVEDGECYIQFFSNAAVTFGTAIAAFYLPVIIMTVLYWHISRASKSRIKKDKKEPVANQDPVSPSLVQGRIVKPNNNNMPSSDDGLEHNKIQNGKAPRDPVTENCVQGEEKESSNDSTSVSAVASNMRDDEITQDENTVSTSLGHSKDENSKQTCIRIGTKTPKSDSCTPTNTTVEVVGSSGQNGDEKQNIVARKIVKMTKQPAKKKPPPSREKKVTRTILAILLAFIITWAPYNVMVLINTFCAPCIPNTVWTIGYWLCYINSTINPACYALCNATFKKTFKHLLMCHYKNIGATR

[3] = biological target: T2, Solute carrier family 22 member 1 (Homo sapiens, UniProt O15245)
T2 sequence (O15245 whole entry): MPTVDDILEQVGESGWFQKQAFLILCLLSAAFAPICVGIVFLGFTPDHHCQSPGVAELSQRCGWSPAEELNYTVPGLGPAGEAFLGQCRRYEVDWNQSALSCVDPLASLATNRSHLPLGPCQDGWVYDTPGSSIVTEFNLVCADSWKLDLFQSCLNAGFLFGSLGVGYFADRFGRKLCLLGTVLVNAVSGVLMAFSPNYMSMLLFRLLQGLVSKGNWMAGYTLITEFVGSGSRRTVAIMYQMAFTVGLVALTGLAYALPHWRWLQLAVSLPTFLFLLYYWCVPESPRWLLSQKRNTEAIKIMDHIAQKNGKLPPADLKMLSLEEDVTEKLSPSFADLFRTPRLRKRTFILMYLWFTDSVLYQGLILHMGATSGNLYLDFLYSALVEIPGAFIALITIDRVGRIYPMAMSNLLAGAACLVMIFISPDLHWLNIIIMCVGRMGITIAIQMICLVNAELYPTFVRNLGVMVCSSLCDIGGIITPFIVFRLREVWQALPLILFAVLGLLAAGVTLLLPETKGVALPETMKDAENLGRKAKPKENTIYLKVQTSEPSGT

[4] = biological target: T3, Gamma-aminobutyric acid receptor subunit alpha-1 (Homo sapiens, UniProt P14867)
T3 sequence (P14867 whole entry): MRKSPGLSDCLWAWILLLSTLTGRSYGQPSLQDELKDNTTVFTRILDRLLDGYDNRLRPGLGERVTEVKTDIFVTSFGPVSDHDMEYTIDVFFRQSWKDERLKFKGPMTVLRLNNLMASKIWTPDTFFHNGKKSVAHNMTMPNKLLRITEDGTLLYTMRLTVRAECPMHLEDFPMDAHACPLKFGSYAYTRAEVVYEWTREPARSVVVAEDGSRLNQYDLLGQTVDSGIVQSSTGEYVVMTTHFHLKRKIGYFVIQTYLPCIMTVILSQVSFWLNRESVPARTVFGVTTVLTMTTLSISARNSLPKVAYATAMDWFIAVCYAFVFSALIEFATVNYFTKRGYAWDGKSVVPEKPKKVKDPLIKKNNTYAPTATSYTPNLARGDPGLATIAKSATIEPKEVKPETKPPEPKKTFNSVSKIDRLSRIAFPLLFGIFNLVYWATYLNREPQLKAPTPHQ

[5] = biological target: Beta-2 adrenergic receptor (Homo sapiens, UniProt P07550)
D(1A) dopamine receptor = D(1A) dopamine receptor (Homo sapiens, UniProt P21728)
D(2) dopamine receptor = D(2) dopamine receptor (Homo sapiens, UniProt P14416)
[6] = biological target: T4, Alpha-2A adrenergic receptor (Homo sapiens, UniProt P08913)
T4 sequence (P08913 whole entry): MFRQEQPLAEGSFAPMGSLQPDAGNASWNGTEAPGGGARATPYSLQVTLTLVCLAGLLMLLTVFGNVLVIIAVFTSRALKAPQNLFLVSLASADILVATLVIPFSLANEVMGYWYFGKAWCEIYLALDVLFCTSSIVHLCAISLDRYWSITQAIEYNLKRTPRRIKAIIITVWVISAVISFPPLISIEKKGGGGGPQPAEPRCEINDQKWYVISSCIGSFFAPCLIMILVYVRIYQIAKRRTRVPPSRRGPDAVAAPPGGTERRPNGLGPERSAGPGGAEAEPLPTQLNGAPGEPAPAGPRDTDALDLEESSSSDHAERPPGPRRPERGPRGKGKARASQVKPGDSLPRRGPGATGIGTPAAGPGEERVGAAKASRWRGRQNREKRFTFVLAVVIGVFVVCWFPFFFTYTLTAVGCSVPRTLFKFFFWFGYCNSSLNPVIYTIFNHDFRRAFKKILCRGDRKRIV

[7] = biological target: T5, 5-hydroxytryptamine receptor 1A (Homo sapiens, UniProt P08908)
T5 sequence (P08908 whole entry): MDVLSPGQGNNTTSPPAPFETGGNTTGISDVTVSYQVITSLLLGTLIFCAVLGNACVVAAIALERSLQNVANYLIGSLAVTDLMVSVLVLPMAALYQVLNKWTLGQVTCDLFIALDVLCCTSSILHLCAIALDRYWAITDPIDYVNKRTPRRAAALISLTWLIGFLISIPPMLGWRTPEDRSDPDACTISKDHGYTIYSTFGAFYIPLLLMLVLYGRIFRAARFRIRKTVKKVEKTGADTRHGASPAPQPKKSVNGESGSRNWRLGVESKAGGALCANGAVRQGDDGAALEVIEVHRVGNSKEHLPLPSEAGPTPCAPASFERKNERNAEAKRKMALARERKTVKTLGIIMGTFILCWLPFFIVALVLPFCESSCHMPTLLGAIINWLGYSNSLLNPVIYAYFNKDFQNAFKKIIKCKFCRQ

Chain of Beta-2 adrenergic receptor (P07550 whole entry): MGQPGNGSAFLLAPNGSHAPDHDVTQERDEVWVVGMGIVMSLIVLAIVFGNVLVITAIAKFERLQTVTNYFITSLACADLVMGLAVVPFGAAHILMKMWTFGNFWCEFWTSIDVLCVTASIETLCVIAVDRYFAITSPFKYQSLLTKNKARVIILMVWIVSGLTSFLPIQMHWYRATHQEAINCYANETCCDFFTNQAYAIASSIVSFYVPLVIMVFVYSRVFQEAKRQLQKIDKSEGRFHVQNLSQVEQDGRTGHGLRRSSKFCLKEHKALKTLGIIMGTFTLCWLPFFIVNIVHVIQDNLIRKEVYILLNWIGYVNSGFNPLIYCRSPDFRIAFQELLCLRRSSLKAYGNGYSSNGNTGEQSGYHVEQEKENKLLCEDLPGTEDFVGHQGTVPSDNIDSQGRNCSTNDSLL
Chain of D(2) dopamine receptor (P14416 whole entry): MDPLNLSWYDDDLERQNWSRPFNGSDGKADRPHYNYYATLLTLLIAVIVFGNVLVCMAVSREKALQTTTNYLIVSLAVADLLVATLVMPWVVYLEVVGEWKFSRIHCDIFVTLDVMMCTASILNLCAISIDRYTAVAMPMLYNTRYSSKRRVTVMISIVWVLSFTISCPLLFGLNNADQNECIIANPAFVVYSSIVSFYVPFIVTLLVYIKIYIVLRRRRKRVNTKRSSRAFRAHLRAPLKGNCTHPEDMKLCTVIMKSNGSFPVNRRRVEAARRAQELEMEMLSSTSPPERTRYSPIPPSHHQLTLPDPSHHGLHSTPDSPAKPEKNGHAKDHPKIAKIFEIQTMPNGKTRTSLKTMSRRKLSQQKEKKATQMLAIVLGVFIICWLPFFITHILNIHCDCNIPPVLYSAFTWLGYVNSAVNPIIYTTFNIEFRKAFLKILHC
Chain of 5-hydroxytryptamine receptor 1D (P28221 whole entry): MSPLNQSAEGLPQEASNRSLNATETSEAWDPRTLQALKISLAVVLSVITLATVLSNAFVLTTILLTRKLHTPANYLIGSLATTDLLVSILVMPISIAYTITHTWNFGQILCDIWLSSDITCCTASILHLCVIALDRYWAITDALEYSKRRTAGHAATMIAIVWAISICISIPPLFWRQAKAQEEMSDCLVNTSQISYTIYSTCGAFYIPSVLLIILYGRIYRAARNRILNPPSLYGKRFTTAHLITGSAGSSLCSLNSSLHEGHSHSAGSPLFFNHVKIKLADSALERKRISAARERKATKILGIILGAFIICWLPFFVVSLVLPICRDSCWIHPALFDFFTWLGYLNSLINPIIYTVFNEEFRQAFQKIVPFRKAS
Chain of D(1A) dopamine receptor (P21728 whole entry): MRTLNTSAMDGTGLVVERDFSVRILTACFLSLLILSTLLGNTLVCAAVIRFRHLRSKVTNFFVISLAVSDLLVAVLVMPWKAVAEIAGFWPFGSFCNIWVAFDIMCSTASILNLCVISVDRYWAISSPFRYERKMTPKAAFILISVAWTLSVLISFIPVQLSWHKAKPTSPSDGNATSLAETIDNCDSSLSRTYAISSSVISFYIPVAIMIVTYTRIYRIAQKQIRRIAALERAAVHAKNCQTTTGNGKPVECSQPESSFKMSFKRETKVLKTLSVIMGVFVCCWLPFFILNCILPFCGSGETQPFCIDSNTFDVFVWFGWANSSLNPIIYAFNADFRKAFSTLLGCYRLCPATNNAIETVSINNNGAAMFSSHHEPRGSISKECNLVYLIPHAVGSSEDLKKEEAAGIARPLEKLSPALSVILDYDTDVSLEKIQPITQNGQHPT

## Clc1cccc(N2CCNCC2)c1 [mCPP]
[1]
  Ki: 1300 nM
[2]
  Ki: > 10000 nM
[3]
  Ki: 2900 nM
[4]
  Ki: > 10000 nM
[5]
  Ki: 2500 nM
D(1A) dopamine receptor
  Ki: 7000 nM
D(2) dopamine receptor
  Ki: > 10000 nM
[6]
  Ki: 570 nM
[7]
  Ki: 400 nM
